Read-outs that look alike come from different tables or passages of the source.

Common to all, as to format: biochemical
One experiment deals with T1, Cdc25B (Homo sapiens, UniProt P30305).
T1 sequence (P30305 1-580): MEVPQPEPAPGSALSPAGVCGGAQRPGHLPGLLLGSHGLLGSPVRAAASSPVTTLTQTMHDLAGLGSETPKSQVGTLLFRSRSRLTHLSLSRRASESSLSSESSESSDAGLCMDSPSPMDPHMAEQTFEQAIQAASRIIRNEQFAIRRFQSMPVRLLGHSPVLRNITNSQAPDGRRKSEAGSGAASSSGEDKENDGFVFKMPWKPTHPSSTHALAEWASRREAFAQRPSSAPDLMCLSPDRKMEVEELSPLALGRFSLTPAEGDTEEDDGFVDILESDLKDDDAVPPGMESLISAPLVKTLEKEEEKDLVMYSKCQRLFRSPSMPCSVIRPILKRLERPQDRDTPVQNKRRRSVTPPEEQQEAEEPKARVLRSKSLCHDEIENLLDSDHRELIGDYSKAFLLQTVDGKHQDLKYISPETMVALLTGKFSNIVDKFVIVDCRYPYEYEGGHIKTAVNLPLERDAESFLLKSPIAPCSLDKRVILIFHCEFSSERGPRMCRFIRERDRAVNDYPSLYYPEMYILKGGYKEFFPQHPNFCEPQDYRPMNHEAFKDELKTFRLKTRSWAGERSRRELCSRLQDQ
Nature of the experiment: Cdc25B phosphatase inhibition (50 μM screen, 3 pt. and 8 pt. IC-50). To be noted: for IC50: Cdc25B; for inhibition at 50 µM: read-out: Percent Inhibition at 50 uM compound, Cdc25 B. As for the experimental part:
(§1) Using procedures known to those skilled in the art, the compounds listed in Table 3 were screened against Cdc25A, Cdc25B, and Cdc25C at 50 μM. […] To analyze these effects further, the compounds were then screened against Cdc25B in a 3 pt. IC-50, using 1, 7 and 50 μM. Several of the compounds were also screened with an 8 pt. IC-50 process, using 0.1–10 μM, allowing determination of Hill slopes.

In another experiment the target is T2, Cdc25A (Homo sapiens, UniProt P30304).
T2 sequence (P30304 1-524): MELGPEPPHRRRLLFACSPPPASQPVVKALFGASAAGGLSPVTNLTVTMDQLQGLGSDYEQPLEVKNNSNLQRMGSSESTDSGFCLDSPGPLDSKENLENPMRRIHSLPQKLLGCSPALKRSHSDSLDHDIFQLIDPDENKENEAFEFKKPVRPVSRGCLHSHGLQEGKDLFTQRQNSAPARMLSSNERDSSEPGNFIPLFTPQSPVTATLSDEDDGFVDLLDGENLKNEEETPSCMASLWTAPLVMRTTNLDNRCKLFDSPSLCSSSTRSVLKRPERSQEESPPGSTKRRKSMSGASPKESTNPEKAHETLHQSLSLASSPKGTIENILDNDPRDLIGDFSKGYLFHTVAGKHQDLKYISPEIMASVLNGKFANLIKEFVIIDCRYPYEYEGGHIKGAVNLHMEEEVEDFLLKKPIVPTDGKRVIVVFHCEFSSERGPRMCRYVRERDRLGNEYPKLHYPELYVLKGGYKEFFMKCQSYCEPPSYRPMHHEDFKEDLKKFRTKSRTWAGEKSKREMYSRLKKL
In words: Cdc25A phosphatase inhibition screen at 50 μM. To be noted: read-out: Percent Inhibition at 50 uM compound, Cdc25 A. As for the experimental part: as §1

The next experiment deals with T3, Cdc25C (Homo sapiens, UniProt P30307).
T3 sequence (P30307 1-473): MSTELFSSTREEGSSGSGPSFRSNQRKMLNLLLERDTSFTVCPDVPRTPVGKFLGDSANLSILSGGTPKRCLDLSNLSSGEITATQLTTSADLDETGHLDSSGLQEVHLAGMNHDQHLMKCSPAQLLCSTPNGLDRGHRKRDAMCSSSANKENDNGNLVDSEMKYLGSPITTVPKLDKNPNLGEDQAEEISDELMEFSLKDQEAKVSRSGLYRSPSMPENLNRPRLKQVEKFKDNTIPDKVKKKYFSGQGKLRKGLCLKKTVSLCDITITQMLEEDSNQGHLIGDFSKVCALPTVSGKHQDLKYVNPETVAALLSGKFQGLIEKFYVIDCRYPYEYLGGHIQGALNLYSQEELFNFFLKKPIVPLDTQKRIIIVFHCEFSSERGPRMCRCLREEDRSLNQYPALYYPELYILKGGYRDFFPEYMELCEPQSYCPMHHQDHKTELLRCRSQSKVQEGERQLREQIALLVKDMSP
Nature of the experiment: Cdc25C phosphatase inhibition screen at 50 μM. The conditions noted are these: read-out: Percent Inhibition at 50 uM compound, Cdc25 C. As for the experimental part: as §1

Setting [1] is: 3 pt. IC-50 using 1, 7 and 50 μM, read-out: IC50 (3 pt).
Where [2] appears, read: 8 pt. IC-50 using 0.1–10 μM, read-out: IC50 (8 pt).

Take `COc1cccc2c(C3=C(O)C(=O)C=C(O)C3=O)c[nH]c12` [7A, 2,5-dihydroxy-3-(7-methoxy-1H-indol-3-yl)-[1,4]-benzoquinone]: the IC50 (as a rule, the point on the concentration scale where inhibition reaches its midpoint) on Cdc25B (setting [1]) stood at 79.5 µM. The inhibition (as a rule, how much of the control response was suppressed) at 50 µM at Cdc25B is 15%; on Cdc25A, 36%; on Cdc25C, 13%.
For the compound `CC(C)=CCc1cccc2c(C3=C(O)C(=O)C=C(O)C3=O)c[nH]c12` [6B, 2,5-dihydroxy-3-(7-prenyl-1H-indol-3-yl)-[1,4]-benzoquinone], the IC50 on Cdc25B (setting [1]) was found to be 2.1 µM. Further, the inhibition at 50 µM at Cdc25B came to 99%; at Cdc25A, 100%; on Cdc25C it was 84%.
In the case of `Cc1ccc2[nH]c(C)c(C3=C(O)C(=O)C=C(O)C3=O)c2c1` [7C, 2,5-dihydroxy-3-(2,5-dimethyl-1H-indol-3-yl)-[1,4]-benzoquinone], the IC50 at Cdc25B (setting [1]) was found to be 16.5 µM. Besides, the inhibition at 50 µM on Cdc25B stood at 20%; on Cdc25A, 61%; at Cdc25C, 25%.
For `O=C1C=C(O)C(=O)C(c2c[nH]c3ccccc23)=C1O` [2A, 2,5-dihydroxy-3(1H-indol-3-yl)-[1,4]-benzoquinone], the IC50 came to 14.2 µM on Cdc25B (setting [1]) and 16.5 µM at Cdc25B (setting [2]). Besides, the figures for the inhibition at 50 µM at Cdc25B, at Cdc25A and on Cdc25C were 75%, 55% and 69%, respectively.
For the compound `CC1(c2[nH]c3ccccc3c2C2=C(O)C(=O)C=C(O)C2=O)CC1` [2G, 2,5-dihydroxy-3-[2-(1-methylcycloproyl)-1H-indol-3-yl]-[1,4]-benzoquinone], the IC50 at Cdc25B (setting [1]) is 3.6 µM. Moreover, the inhibition at 50 µM on Cdc25B was found to be 17%; on Cdc25A it was 49%; on Cdc25C it was 0%.
`O=C1C=C(O)C(=O)C(c2c[nH]c3ccc(OCc4ccccc4)cc23)=C1O` [4G, 2,5-dihydroxy-3-(5-benzyloxy-1H-indol-3-yl)-[1,4]-benzoquinone]: the IC50 at Cdc25B (setting [1]) stood at 1.8 µM. Also, the inhibition at 50 µM at Cdc25B was determined as 50%; at Cdc25A, 96%; on Cdc25C, 26%.
The matching figures for `COC1=CC(=O)C(OC)=C(c2c[nH]c3c(F)cccc23)C1=O` [5E, 2,5-dimethoxy-3-(7-fluoro-1H-indol-3-yl)-[1,4]-benzoquinone]: 125 µM, 67%, 29% and 68%.
Turning to `CCc1[nH]c2ccccc2c1C1=C(O)C(=O)C=C(O)C1=O` [2D, 2,5-dihydroxy-3-(2-ethyl-1H-indol-3-yl)-[1,4]-benzoquinone], the IC50 on Cdc25B (setting [1]) was found to be 33.4 µM. Also, the results for the inhibition at 50 µM at Cdc25B, at Cdc25A and on Cdc25C were 36%, 51% and 14%, respectively.
Regarding `O=C1C=C(O)C(=O)C(c2c[nH]c3cc(Cl)ccc23)=C1O` [5B, 2,5-dihydroxy-3-(6-chloro-1H-indol-3-yl)-[1,4]-benzoquinone], the IC50 at Cdc25B (setting [1]) was 2.4 µM. For the same compound, the inhibition at 50 µM on Cdc25B is 92%; at Cdc25A, 99%; on Cdc25C, 81%.
Take `COc1ccc2[nH]c(C)c(C3=C(O)C(=O)C=C(O)C3=O)c2c1` [7D, 2,5-dihydroxy-3-(2-methyl-5-methoxy-1H-indol-3-yl)-[1,4]-benzoquinone]: the half-inhibitory concentration (IC50) at Cdc25B (setting [1]) stood at 126 µM. The values for the inhibition at 50 µM on Cdc25B, at Cdc25A and at Cdc25C were 0%, 0% and 31%, respectively.
As to `O=C1C=C(O)C(=O)C(c2c[nH]c3c2ccc2ccccc23)=C1O` [8C, 2,5-dihydroxy-3-(1H-benzo[g]indol-3-yl)-[1,4]-benzoquinone], the IC50 at Cdc25B (setting [1]) came to 2.8 µM. Besides, the inhibition at 50 µM at Cdc25B came to 79%; at Cdc25A, 98%; on Cdc25C it was 75%.
In the case of `O=C1C=C(O)C(=O)C(c2c[nH]c3c(-c4ccccc4)cccc23)=C1O` [6H, 2,5-dihydroxy-3-(7-phenyl-1H-indol-3-yl)-[1,4]-benzoquinone], the IC50 on Cdc25B (setting [1]) is 1.4 µM. The inhibition at 50 µM on Cdc25B stood at 92%; at Cdc25A it was 98%; on Cdc25C, 91%.
With `Cc1[nH]c2ccccc2c1C1=C(O)C(=O)C=C(O)C1=O` [2C, 2,5-dihydroxy-3-(2-methyl-1H-indol-3-yl)-[1,4]-benzoquinone], the IC50 on Cdc25B (setting [1]) worked out at 138 µM. The inhibition at 50 µM on Cdc25B came to 9%; at Cdc25A it was 35%; at Cdc25C, 5%.
Take `C=CC(C)(C)c1[nH]c2ccccc2c1C1=C(O)C(=O)C=C(O)C1=O` [3C, 2,5-dihydroxy-3-[2-(1,1-dimethyl-allyl)-1H-indol-3-yl]-[1,4]-benzoquinone]: the IC50 at Cdc25B (setting [1]) is 40.3 µM. Also, the inhibition at 50 µM was 0% on Cdc25B, 40% on Cdc25A and 21% on Cdc25C.
Regarding `CC1(c2[nH]c3ccccc3c2C2=C(O)C(=O)C=C(O)C2=O)CCCCC1` [3A, 2,5-dihydroxy-3-[2-(1-methylcyclohexyl)-1H-indol-3-yl]-[1,4]-benzoquinone], the IC50 on Cdc25B (setting [1]) is 82.9 µM. Also, the inhibition at 50 µM at Cdc25B was 11%; at Cdc25A it was 69%; at Cdc25C it was 22%.
As to `O=C1C=C(O)C(=O)C(c2c[nH]c3cccc(OCc4ccccc4)c23)=C1O` [3H, 2,5-dihydroxy-3-(4-benzyloxy-1H-indol-3-yl)-[1,4]-benzoquinone], the IC50 on Cdc25B (setting [1]) is 4.6 µM. Also, the inhibition at 50 µM on Cdc25B turned out to be 0%; at Cdc25A it was 87%; on Cdc25C it was 2%.
In the case of `CC(C)=CCCC(C)=CCCC(C)=CCc1cccc2c(C3=C(O)C(=O)C=C(O)C3=O)c[nH]c12` [6D, 2,5-dihydroxy-3-(7-farnecyl-1H-indol-3-yl)-[1,4]-benzoquinone], the IC50 on Cdc25B (setting [1]) stood at 0.1 µM; at Cdc25B (setting [2]) it was 0.5 µM. Further, the inhibition at 50 µM at Cdc25B came out at 89%; on Cdc25A, 86%; on Cdc25C, 85%.
With `O=C1C=C(O)C(=O)C(c2c(-c3ccccc3)[nH]c3ccccc23)=C1O` [3B, 2,5-dihydroxy-3-(2-phenyl-1H-indol-3-yl)-[1,4]-benzoquinone], the IC50 at Cdc25B (setting [1]) was determined as 22.2 µM. For the same compound, the figures for the inhibition at 50 µM on Cdc25B, on Cdc25A and on Cdc25C were 38%, 93% and 18%, respectively.
For `Cc1ccc2[nH]cc(C3=C(O)C(=O)C=C(O)C3=O)c2c1` [4H, 2,5-dihydroxy-3-(5-methyl-1H-indol-3-yl)-[1,4]-benzoquinone], on Cdc25B (setting [1]), the IC50 came to 2.5 µM. The inhibition at 50 µM on Cdc25B amounted to 61%; at Cdc25A it was 94%; at Cdc25C, 55%.
Turning to `Cn1cc(C2=C(O)C(=O)C=C(O)C2=O)c2ccccc21` [2B, 2,5-dihydroxy-3-(1-methyl-1H-indol-3-yl)-[1,4]-benzoquinone], the IC50 at Cdc25B (setting [1]) stood at 185 µM. Moreover, the results for the inhibition at 50 µM at Cdc25B, on Cdc25A and at Cdc25C were 42%, 63% and 19%, respectively.

(Values after patent publication US7057052B2, “Heterocyclic quinones as pharmaceutical agents” (Duke University, priority 2002, dated 2006).)
